Assay [1] addresses MvitOBP3 protein. As to the kind of experiment: Fluorescence competitive binding assay with 1-NPN probe. On the set-up: species or system Maruca vitrata. The conditions noted are these: recombinant MvitOBP3, 1-NPN fluorescent probe; for IC50: read-out: IC50, ligand concentration displacing 50% of the fluorescence intensity of the MvitOBP/N-phenyl-1-naphthylamine complex; for Ki: read-out: Ki, dissociation constant. The protocol:
The fluorescence measurement takes advantage of the fluorescent properties of the dye, 1-NPN (N-Phenyl-1-naphthylamine, CAS 90-30-2) and is performed by Hitachi F-4500. The wavelength of excitation light was 337 nm, the range of scanning emission wavelength was 350–500 nm, and the slit width was 5 nm. […] Add 2 mL of the protein with a final concentration of 2 μmol/L to a 1 cm, four-sided quartz cup, then add 1-NPN (1 mM/L) to the final concentration is 2–24 μmol/L. And recorded the maximum fluorescence value and determine the protein dissociation constant K1-NPN.
In fluorescence competitive binding assay, the 1-NPN was used as the fluorescent probe, and the dissociation constant (Ki) values of the MvitOBP3/1-NPN complexes were calculated according to the changes in the fluorescence intensity (Fig. 5A). […] These seventeen volatile ligands from host-plant were selected to test binding affinities of MvitOBP3 (Fig. 5 and Table 2).

Assay [2] addresses MvitGOBP1. On the set-up: method as in PMID 26517714. The conditions noted are these: cited from earlier work.
The target of assay [3] is MvitGOBP2 protein. On the set-up: method as in PMID 26517714. The conditions noted are these: cited from earlier work.

SMILES strings stand for the structures.

Usually Ki stands for the equilibrium dissociation constant of an inhibitor or competing ligand from its target. For `CCC(=O)c1ccc(CC)cc1` [4-ethylpropiophenone], in assay [1], the IC50 was 26.7 µM and the Ki came to 23.6 µM. Also, the Ki in assay [2] was 14.2 µM.
Turning to `CCc1ccc(C(C)=O)cc1` [1-(4-ethylphenyl)-ethanone], in assay [1], the IC50 was 24.1 µM and the Ki is 21.3 µM.
In the case of `CCc1ccc(C=O)cc1` [4-ethylbenzaldehyde], in assay [1], the IC50 turned out to be 22.8 µM and the Ki stood at 20.1 µM.
Turning to `CC(=O)c1ccccc1` [Acetophenone], in assay [1], the IC50 turned out to be 41.8 µM and the Ki came out at 37 µM.
For `CCc1cccc(CC)c1` [1,3-diethylbenzene], in assay [1], the IC50 was 33.6 µM and the Ki was 29.7 µM.
Regarding `CCc1ccc(CC)cc1` [1,4-diethylbenzene], in assay [1], the IC50 came to 29.3 µM and the Ki stood at 25.9 µM.
For `CCCCOC(=O)CCC` [Butanoic acid butyl ester], in assay [1], the IC50 was found to be 11.1 µM and the Ki is 9.79 µM. The inhibition constant (Ki) in assay [2] is 12.5 µM.
In the case of `CCCCCCCCOC(=O)CCC` [Butanoic acid octyl ester], in assay [1], the IC50 came to 21.2 µM and the Ki came to 18.7 µM. Further, the Ki in assay [3] is 8.5 µM.
For the compound `CC(=O)c1ccc(O)c(C)c1` [4-hydroxy-3-methylacetophenone], in assay [1], the IC50 is 22.7 µM and the Ki is 20.1 µM.
As for `O=Cc1ccccc1` [Benzaldehyde], in assay [1], the IC50 was 43.3 µM and the Ki is 38.3 µM.
Consider `CC(=O)c1ccc(C)cc1C` [1-(2,4-Dimethylphenyl)-ethanone], for which, in assay [1], the IC50 was determined as 21.4 µM and the inhibitory constant (Ki) was 18.9 µM.
Taken in the same sequence, the figures for `O=Cc1ccccc1O` [2-hydroxybenzaldehyde] were 24.2 µM and 21.4 µM.
Turning to `Cc1cc(C)cc(C(C)(C)C)c1` [1-(1,1-Dimethylethyl)-3,5-dimethylbenzene], in assay [1], the IC50 amounted to 21.8 µM and the Ki was 19.3 µM.
Taken in the same sequence, the figures for `CC(=O)c1ccc(C(C)=O)cc1` [1,4-diacetyl benzene] were 28.4 µM and 25.1 µM.
Consider `CC(C=O)Cc1ccccc1` (stereo not shown) [2-methyl-3-phenylpropanal], for which, in assay [1], the IC50 was found to be 10.6 µM and the Ki turned out to be 9.38 µM. Further, in assay [3], the Ki is 3.81 µM.
As to `C=C(C)C1CC=C(C)CC1` (stereo not shown) [Limonene], in assay [1], the IC50 is 9.4 µM and the Ki amounted to 8.31 µM. The inhibition constant Ki in assay [2] is 13.8 µM.
`Oc1cccc2[nH]ccc12` [1H-indol-4-ol]: in assay [1], the IC50 turned out to be 12.6 µM and the Ki was determined as 11.2 µM. In addition, the Ki in assay [2] is 10.9 µM.

These data come from PMC8263619, “Functional characteristics of a novel odorant binding protein in the legume pod borer, Maruca vitrata” (Scientific Reports, 2021).
